From the NIST ThermoML archive (doi:10.1021/acs.jced.6b00355) come the findings set out here.

Data set [1] in a line: Molar enthalpy of transition or fusion. The following applies: Crystal; DSC.
For data set [2] the following is noted: Crystal; DTA.

± gives the expanded uncertainty stated by the source.

Turning to `CCCCCCCCCCCC(=O)O` [dodecanoic acid], the “Molar enthalpy of transition or fusion” value in data set [1] came out at 37.6 ± 0.89 kJ/mol. Further, in data set [2], the Normal melting temperature stood at 44.2 ± 0.7 °C.

In the case of `CCCCCCCCCCCCCCCC(=O)OCC(COC(=O)CCCCCCCCCCCCCCC)OC(=O)CCCCCCCCCCCCCCC` [1,2,3-propanetriyl tri(hexadecanoate)], the “Molar enthalpy of transition or fusion” value in data set [1] is 181 ± 5.2 kJ/mol. For the same compound, the Normal melting temperature in data set [2] came to 67.6 ± 0.7 °C.

On to `CCCCCCCCCCCCCCCC(=O)O` [hexadecanoic acid], for which the “Molar enthalpy of transition or fusion” value in data set [1] is 55.8 ± 1.5 kJ/mol. In data set [2], the Normal melting temperature is 62.8 ± 0.7 °C.

On to `CCCCCCCCCCCCCC(=O)O` [tetradecanoic acid], for which, in data set [1], the “Molar enthalpy of transition or fusion” value turned out to be 44.9 ± 1.1 kJ/mol. In addition, the Normal melting temperature in data set [2] is 54.5 ± 0.7 °C.

As for `CCCCCCCCCCCCCCCCCC(=O)OCC(COC(=O)CCCCCCCCCCCCCCCCC)OC(=O)CCCCCCCCCCCCCCCCC` [glycerol trioctadecanoate], in data set [1], the “Molar enthalpy of transition or fusion” value stood at 195 ± 8.6 kJ/mol. The Normal melting temperature in data set [2] amounted to 73.5 ± 0.7 °C.

With `CCCCCCCCCCCCCC(=O)OCC(COC(=O)CCCCCCCCCCCCC)OC(=O)CCCCCCCCCCCCC` [1,2,3-propanetriyl tri(tetradecanoate)], the “Molar enthalpy of transition or fusion” value in data set [1] is 154 ± 6.2 kJ/mol. The Normal melting temperature in data set [2] was determined as 58.0 ± 0.7 °C.

For `CCCCCCCCCCCC(=O)OCC(COC(=O)CCCCCCCCCCC)OC(=O)CCCCCCCCCCC` [1,2,3-propanetriyl tridodecanoate], in data set [1], the “Molar enthalpy of transition or fusion” value stood at 127 ± 2.5 kJ/mol. For the same compound, in data set [2], the Normal melting temperature was 48.8 ± 0.7 °C.

With `CCCCCCCCCCCCCCCC` [hexadecane], the Normal melting temperature in data set [2] worked out at 18.2 ± 0.7 °C.

On to `CCCCCCCCCCCCCCCCCC(=O)O` [octadecanoic acid], for which the “Molar enthalpy of transition or fusion” value in data set [1] is 63.3 ± 1.7 kJ/mol. In data set [2], the Normal melting temperature worked out at 70.0 ± 0.7 °C.
